Results as given in patent US10519183B2, “Amine solvate of sodium-glucose linked transporter inhibitor, and preparation method and application thereof” (Youngene Therapeutics Co., Ltd., priority 2016, dated 2019).

Key:
[1] = target: T1, SGLT2 (Homo sapiens, UniProt P31639); details: cited from earlier work
T1 sequence (P31639 1-672): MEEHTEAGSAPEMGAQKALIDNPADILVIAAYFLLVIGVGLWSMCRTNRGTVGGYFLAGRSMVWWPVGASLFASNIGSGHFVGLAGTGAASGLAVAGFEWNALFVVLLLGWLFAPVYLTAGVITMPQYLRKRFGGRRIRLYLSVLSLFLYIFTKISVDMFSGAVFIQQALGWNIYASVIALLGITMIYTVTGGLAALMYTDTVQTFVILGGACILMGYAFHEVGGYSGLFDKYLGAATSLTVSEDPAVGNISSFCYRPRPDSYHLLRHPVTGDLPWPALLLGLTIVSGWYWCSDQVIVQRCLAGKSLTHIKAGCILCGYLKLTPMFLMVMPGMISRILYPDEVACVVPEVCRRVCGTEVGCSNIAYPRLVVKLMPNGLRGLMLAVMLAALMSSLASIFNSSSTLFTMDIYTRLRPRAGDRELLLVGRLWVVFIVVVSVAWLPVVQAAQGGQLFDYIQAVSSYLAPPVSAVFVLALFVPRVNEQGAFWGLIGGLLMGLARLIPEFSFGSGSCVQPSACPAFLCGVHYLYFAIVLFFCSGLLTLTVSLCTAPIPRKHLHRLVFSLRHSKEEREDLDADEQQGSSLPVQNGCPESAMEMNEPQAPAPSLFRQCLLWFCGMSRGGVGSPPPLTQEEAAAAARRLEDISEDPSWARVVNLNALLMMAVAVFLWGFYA

[2] = target: T2, SGLT1 (Homo sapiens, UniProt P13866); details: cited from earlier work
T2 sequence (P13866 1-664): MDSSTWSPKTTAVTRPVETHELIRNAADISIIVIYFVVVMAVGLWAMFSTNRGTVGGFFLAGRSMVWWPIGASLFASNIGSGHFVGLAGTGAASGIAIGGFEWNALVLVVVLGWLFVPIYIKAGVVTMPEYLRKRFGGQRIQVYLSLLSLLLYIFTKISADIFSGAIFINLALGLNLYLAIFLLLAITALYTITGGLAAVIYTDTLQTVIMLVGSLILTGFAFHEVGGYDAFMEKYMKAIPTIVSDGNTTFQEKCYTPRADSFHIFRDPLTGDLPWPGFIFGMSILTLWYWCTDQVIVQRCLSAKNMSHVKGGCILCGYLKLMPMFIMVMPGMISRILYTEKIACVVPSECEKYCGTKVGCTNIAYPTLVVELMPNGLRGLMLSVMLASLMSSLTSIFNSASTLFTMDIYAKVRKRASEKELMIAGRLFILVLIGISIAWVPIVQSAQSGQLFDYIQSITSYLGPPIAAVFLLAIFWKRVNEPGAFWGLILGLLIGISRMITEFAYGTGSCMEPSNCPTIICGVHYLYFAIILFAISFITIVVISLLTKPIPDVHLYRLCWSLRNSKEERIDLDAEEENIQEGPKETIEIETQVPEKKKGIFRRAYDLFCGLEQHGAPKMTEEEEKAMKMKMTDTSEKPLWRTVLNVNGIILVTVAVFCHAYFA

[3] = stress study on physical stability and chemical stability (80° C., one week); type: physicochemical; details: for Chemical purity: HPLC
Protocol: The stress study on the physical stability and chemical stability of the diethylamine solvate of the compound of formula (I) and the amorphous compound of formula (I) were carried out. The diethylamine solvate of the compound of formula (I) obtained in Example 3 and the amorphous compound of formula (I) were placed in glass vials respectively in duplicate, about 10 mg each sample. These samples for stability test were placed in an incubator at 80° C. for one week. After being placed for one week, one sample was used for the chemical purity analysis by HPLC method. The other sample was used for the crystal characterization by XRPD.

## CCc1ccc([C@]23OC[C@](CO)(O2)[C@@H](O)[C@H](O)[C@H]3O)cc1Cc1ccc2c(c1)OCCO2 [compound of formula (I), (1S,2S,3S,4R,5S)-5-(3-((2,3-dihydrobenzo[b][1,4]dioxin-6-yl)methyl)-4-ethylphenyl)-1-(hydroxymethyl)-6,8-dioxabicyclo[3.2.1]octane-2,3,4-triol]
[1]
  inhibitory effect on SGLT2: very significant inhibitory effect
[2]
  inhibitory effect on SGLT1: significant inhibitory effect
[3]; 80° C., stress stability test
  degradation at high temperature: changed and degraded immediately
[3]; After being placed for one week at 80° C.
  Chemical purity: 90.2%
[3]; Initial state of the samples
  Chemical purity: 95.1%
